Measured values from publication PMC8205039, “Synthesis and biological evaluation of 4-phenoxy-phenyl isoxazoles as novel acetyl-CoA carboxylase inhibitors” (Journal of Enzyme Inhibition and Medicinal Chemistry, 2021).

Tests used:
MDA-MB-231 cells [1] = assay: MTT assay, MDA-MB-231; format: cell-based; settings: Homo sapiens, single concentration of 10 µM (Figure S2), read-out: inhibitory rate, MDA-MB-231
HUVEC = assay: Cell viability of non-cancerous HUVEC; format: cell-based, human; settings: 10 μM
Experimental: (§1) To investigate the selectivity of the synthesised compounds towards cancer cells, the non-cancerous HUVEC cell line was selected for testing.
(§2) The cytotoxicity of target compounds was assessed by MTT assay. Briefly, cells were seeded in 96-well plates at a density of 2500–3000 per well and incubated for 24 h in a CO2 incubator. Then, the cells were treated with candidate compounds at seven different concentrations for 72 h. At the end of treatment, the MTT reagent (5 mg/mL) was added to determine the cell viability. After 4 h of incubation, the resulting medium was removed, and 100 µL of DMSO was added to dissolve the formed formazan. Finally, the absorbance at 550 nm was measured by a microplate reader (Varioskan LUX, […]), with the IC50 values calculated using GraphPad Prism 5 software (GraphPad Software, La Jolla, CA, USA).

[2] = Cell viability of non-cancerous HUVEC; format: cell-based, human; settings: human, HUVEC cells (non-cancerous)
Experimental: as §1, §2

A549 cells [3] = assay: MTT assay, A549; format: cell-based; settings: Homo sapiens, 72 h, mean ± SD (n = 3)
Experimental: as §2

MDA-MB-231 cells [4] = assay: MTT assay, MDA-MB-231; format: cell-based; settings: Homo sapiens, 72 h, mean ± SD (n = 3)
Experimental: as §2

A549 cells [5] = assay: MTT assay, A549; format: cell-based; settings: Homo sapiens, single concentration of 10 µM (Figure S2), read-out: inhibitory rate, A549
HepG2 cells [6] = assay: MTT assay, HepG2; format: cell-based; settings: Homo sapiens, 72 h, mean ± SD (n = 3)
Experimental: as §2

MDA-MB-231 cells [7] = assay: Cell-cycle assay (PI flow cytometry); format: cell-based, human; settings: 48 h
Experimental: MDA-MB-231 cells were seeded on 6-well plates (3 × 10^4 cells/well) and incubated with indicated concentrations of 6g (0.75, 1.5, and 3 µM) and 6l (0.1, 0.2, and 0.4 µM) for 48 h in a 5% CO2 incubator. Then, the cells were collected by trypsinization and centrifugation, followed by fixing in 70% pre-cooled ethanol overnight. Finally, the cells were stained with PI/RNase A according to the manual and measured by flow cytometer (Facs Canto II, Becton Dickinson, San Jose, CA’, USA)[35].

hACC1 = target: T1, hACC1 (Homo sapiens, UniProt Q13085); assay: ACC inhibitory assay (ADP-Glo luminescent ADP detection); format: biochemical; settings: for inhibition at 0.1 µM: hACC1, 0.1 μM, read-out: IRs (%) 0.1 μM; for inhibition at 0.1 µM / inhibition at 5 µM: mean of two independent experiments (Table 2); for IC50: hACC1, mean ± SD; for inhibition at 5 µM: hACC1, 5 μM, read-out: IRs (%) 5 μM; for hACC1 IRs (%): at 5 μM, HTVS candidates (Table 1)
T1 construct: purchased BPS Biosciences 50200
Experimental: The hACC1 inhibitory activity of target compounds was evaluated using the ADP-Glo^TM kinase assay according to our previous report. In brief, 4.5 µL of working solution containing recombinant ACC1 (BPS Biosciences, 50200) and 0.5 µL of diluted compound solution were added to a 384-well Optiplate plate (Perkin Elmer, 6007290, PerkinElmer, Waltham, MA, USA), and incubated at room temperature for 15 min. Then, 5 µL of substrate mixture was added to the 384-well plate to start the reaction. After incubating for 60 min at room temperature, 10 µL of ADP-Glo reagents were added to the 384-well plate, and incubated for another 40 min to deplete the remaining ATP. Finally, 20 µL of kinase detection reagents were added to the plate and incubated for 40 min to convert ADP to ATP. The luminescent signal of ATP was determined using an Envision multifunction reader (Perkin Elmer, 2104–0010, PerkinElmer, Waltham, MA, USA). The IC50 values were calculated using GraphPad Prism 5 software (GraphPad Software, La Jolla, CA, USA).

MDA-MB-231 cells [8] = assay: Cell apoptosis assay (Annexin V-FITC/PI flow cytometry); format: cell-based, human; settings: 48 h
Experimental: MDA-MB-231 cells were plated on 6-well plates (3 × 10^4 cells/well) and incubated with various concentrations of 6g (0.75, 1.5, and 3 µM) and 6l (0.1, 0.2, and 0.4 µM) for 48 h. Then, cells were harvested by trypsinization and centrifugation, followed by staining with annexin-V-FITC in binding buffer for 15 min protected from light. Subsequently, the cells were stained with PI, and the proportion of apoptotic cells was measured by flow cytometer (Facs Canto II, Becton Dickinson, San Jose, CA, USA)[36].

[9] = test system: intracellular malonyl-CoA levels in MDA-MB-231 cells; assay: Measurement of malonyl-CoA levels (Elisa); format: cell-based, human; settings: maximum test concentration, 48 h
Experimental: MDA-MB-231 cells were seeded on 6-well plates and treated with various concentrations of 6g and 6l for 48 h. Cells were collected, washed with PBS, and lysed with 1% Triton X-100. The lysates were centrifuged at 4 °C for 15 min. The malonyl-CoA levels were determined using Elisa assay kits (Ruixin Biotech, Beijing, China).

HepG2 cells [10] = assay: MTT assay, HepG2; format: cell-based; settings: Homo sapiens, single concentration of 10 µM (Figure S2), read-out: inhibitory rate, HepG2

Compound | inhibition at 10 µM (MDA-MB-231 cells [1]) [%] | IRs towards HUVEC (HUVEC) | viability at 72 h, 10 µM [2] [%] | IC50 (A549 cells [3]) [µM] | IC50 (MDA-MB-231 cells [4]) [µM] | inhibition at 10 µM (A549 cells [5]) [%] | IC50 (HepG2 cells [6]) [µM] | inhibition at 0.1 µM (hACC1) [%] | IC50 (hACC1) [nM] | melting point [°C] | inhibition at 10 µM (HepG2 cells [10]) [%] | inhibition at 5 µM (hACC1) [%] | further results
CC(NC(=O)Cc1ccccc1)c1cc(-c2ccc(Oc3ccccc3)cc2)no1 (stereo not drawn) [Compound 6l, N-(1-(3-(4-Phenoxyphenyl)isoxazol-5-yl)ethyl)-2-phenylacetamide] | > 80 | less than 20% | 89.5 ± 3.21 | 0.22 ± 0.07 | 0.21 ± 0.01 | > 80 | 0.26 ± 0.02 | 37.9 | 279 ± 13.1 | 164.5 to 165.5 | > 80 |  | cells at G0/G1 phase (MDA-MB-231 cells [7]; 0.1 μM): 71.79%; cells at G2/M phase (MDA-MB-231 cells [7]; 0.1 μM): 12.01%; cells at S phase (MDA-MB-231 cells [7]; 0.1 μM): 16.20%; cells at G0/G1 phase (MDA-MB-231 cells [7]; 0.2 μM): 76.79%; cells at G2/M phase (MDA-MB-231 cells [7]; 0.2 μM): 8.79%; cells at S phase (MDA-MB-231 cells [7]; 0.2 μM): 14.42%; cells at G0/G1 phase (MDA-MB-231 cells [7]; 0.4 μM): 81.93%; cells at G2/M phase (MDA-MB-231 cells [7]; 0.4 μM): 5.32%; cells at S phase (MDA-MB-231 cells [7]; 0.4 μM): 12.76%; Q2 (upper right quadrant, late apoptotic cells) (MDA-MB-231 cells [8]; 0.4 μM): 17.50%; Q3 (bottom right quadrant, early apoptotic cells) (MDA-MB-231 cells [8]; 0.4 μM): 12.20%; reduction of intracellular malonyl-CoA levels compared to the control group [9]: ~25.85%
CC(NC(=O)NCc1ccccc1)c1cc(-c2ccc(Oc3ccccc3)cc2)no1 (stereo not drawn) [Compound 6q, 1-Benzyl-3-(1-(3-(4-phenoxyphenyl)isoxazol-5-yl)ethyl)urea] |  | less than 20% | 84.9 ± 3.98 | 5.73 ± 0.11 | 0.89 ± 0.26 |  | 2.47 ± 0.5 | 28.3 | 711 ± 52.6 | 161.5 to 162.5 |  | > 60 | 
CC(=O)NC(C)c1cc(-c2ccc(Oc3ccc(OCc4ccccc4)cc3)cc2)no1 (stereo not drawn) [Compound 6a, N-(1-(3-(4-(4-(Benzyloxy)phenoxy)phenyl)isoxazol-5-yl)ethyl)acetamide] | > 80 |  | 45.8 ± 1.16 | 1.4 ± 0.22 | 1.57 ± 0.09 | > 80 | 1.91 ± 0.66 | 18.1 |  | 152.5 to 153.5 | > 80 | 54.9 | hACC1 IRs (%) (hACC1): 57%; hACC1 IRs (%) (hACC1; listed as D098-1432 (6a)): 57.39%
CCCOc1ccc(Oc2ccc(-c3cc(C(C)NC(C)=O)on3)cc2)cc1 (stereo not drawn) [Compound 6e, N-(1-(3-(4-(4-Propoxyphenoxy)phenyl)isoxazol-5-yl)ethyl)acetamide] |  | less than 20% | 83.7 ± 4.4 | 2.66 ± 0.47 | 1.53 ± 0.38 |  | 3.48 ± 0.74 | 31.1 | 438 ± 16.3 | 118.5 to 119.5 |  | > 60 | 
CC(NC(=O)Nc1ccccc1)c1cc(-c2ccc(Oc3ccccc3)cc2)no1 (stereo not drawn) [Compound 6p, 1-(1-(3-(4-Phenoxyphenyl)isoxazol-5-yl)ethyl)-3-phenylurea] |  | less than 20% | 85.6 ± 7.35 | 5.3 ± 0.46 | 0.84 ± 0.08 |  | 1.8 ± 0.62 | 21.5 | 1050 ± 180 | 195.5 to 196.5 |  | > 60 | 
CC(NC(=O)c1ccccc1)c1cc(-c2ccc(Oc3ccccc3)cc2)no1 (stereo not drawn) [Compound 6k, N-(1-(3-(4-Phenoxyphenyl)isoxazol-5-yl)ethyl)benzamide] |  | less than 20% | 80 ± 2.47 | 2.61 ± 0.34 | 0.57 ± 0.18 |  | 3.23 ± 0.89 | 28.1 | 626 ± 41.6 |  |  | > 60 | 
CCC(=O)NC(C)c1cc(-c2ccc(Oc3ccccc3)cc2)no1 (stereo not drawn) [Compound 6i, N-(1-(3-(4-Phenoxyphenyl)isoxazol-5-yl)ethyl)propionamide] |  |  | 70.33 ± 0.25 | 6.02 ± 0.63 | 2.97 ± 1.49 |  | 4.21 ± 0.53 | 18.5 |  | 129.5 to 130.5 |  | 51.8 | 
CC(=O)NC(C)c1cc(-c2ccc(Oc3ccc(OCC4CC4)cc3)cc2)no1 (stereo not drawn) [Compound 6g, N-(1-(3-(4-(4-(Cyclopropylmethoxy)phenoxy)phenyl)isoxazol-5-yl)ethyl)acetamide] | > 80 | less than 20% | 87.3 ± 6.19 | 1.1 ± 0.12 | 1.5 ± 0.58 | > 80 | 1.73 ± 0.55 | 51.4 | 99.8 ± 3.7 | 131.5 to 132.5 | > 80 |  | cells at G0/G1 phase (MDA-MB-231 cells [7]; 0.75 μM): 69.37%; cells at G2/M phase (MDA-MB-231 cells [7]; 0.75 μM): 12.01%; cells at S phase (MDA-MB-231 cells [7]; 0.75 μM): 18.62%; cells at G0/G1 phase (MDA-MB-231 cells [7]; 1.5 μM): 73.66%; cells at G2/M phase (MDA-MB-231 cells [7]; 1.5 μM): 10.51%; cells at S phase (MDA-MB-231 cells [7]; 1.5 μM): 15.83%; cells at G0/G1 phase (MDA-MB-231 cells [7]; 3 μM): 79.97%; cells at G2/M phase (MDA-MB-231 cells [7]; 3 μM): 9.96%; cells at S phase (MDA-MB-231 cells [7]; 3 μM): 10.08%; total percentage of the early and late apoptotic cells (MDA-MB-231 cells [8]; 0.75 μM): 8.34%; total percentage of the early and late apoptotic cells (MDA-MB-231 cells [8]; 1.5 μM): 13.83%; total percentage of the early and late apoptotic cells (MDA-MB-231 cells [8]; 3 μM): 20.25%; reduction of intracellular malonyl-CoA levels compared to the control group [9]: ~23.59%
CC(C)NC(=O)NC(C)c1cc(-c2ccc(Oc3ccccc3)cc2)no1 (stereo not drawn) [Compound 6o, 1-Isopropyl-3-(1-(3-(4-phenoxyphenyl)isoxazol-5-yl)ethyl)urea] |  |  | 77.7 ± 5.67 | 3.12 ± 0.19 | 1.9 ± 0.52 |  | 2.31 ± 0.44 | 17.9 |  | 197.5 to 198.5 |  | 49.8 | 
